Source: PubChem BioAssay (NCI)
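A five-concentration, 48-hour dose response in 96-well plates underlies each endpoint, interpolated linearly between surrounding concentrations. GI50 marks 50% less growth. Definition used: TGI = concentration required for complete inhibition of growth.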

Columns and labels:
Assay in all cases: NCI-60 cell line screen, 48 h; in the data active = GI50 below about 0.43 µM; inactive = the rest
K-562 leukemia = system: K-562 leukemia
M14 melanoma = system: M14 melanoma
U251 CNS = system: U251 CNS
HS 578T breast = system: HS 578T breast
NCI/ADR-RES ovarian = system: NCI/ADR-RES ovarian
HOP-62 NSCLC = system: HOP-62 NSCLC
NCI-H460 lung = system: NCI-H460 lung
MDA-MB-435 = system: MDA-MB-435
HCT-15 colon = system: HCT-15 colon
SNB-19 CNS = system: SNB-19 CNS
SK-MEL-2 melanoma = system: SK-MEL-2 melanoma
HT29 colon = system: HT29 colon
A498 renal = system: A498 renal
HL-60(TB) leukemia = system: HL-60(TB) leukemia
CAKI-1 renal = system: CAKI-1 renal
OVCAR-5 ovarian = system: OVCAR-5 ovarian
OVCAR-3 ovarian = system: OVCAR-3 ovarian
SW-620 colon = system: SW-620 colon
OVCAR-8 ovarian = system: OVCAR-8 ovarian
SF-539 CNS = system: SF-539 CNS
A549 NSCLC = system: A549 NSCLC
BT-549 breast = system: BT-549 breast
MCF7 breast = system: MCF7 breast
SF-268 CNS = system: SF-268 CNS
DU-145 prostate = system: DU-145 prostate
HCC-2998 colon = system: HCC-2998 colon
TK-10 renal = system: TK-10 renal
NCI-H23 lung = system: NCI-H23 lung
ACHN renal = system: ACHN renal
UACC-257 melanoma = system: UACC-257 melanoma
786-0 renal = system: 786-0 renal
IGROV1 ovarian = system: IGROV1 ovarian
UO-31 renal = system: UO-31 renal
NCI-H522 lung = system: NCI-H522 lung
SR leukemia = system: SR leukemia
RXF 393 renal = system: RXF 393 renal
HOP-92 NSCLC = system: HOP-92 NSCLC
MOLT-4 leukemia = system: MOLT-4 leukemia
MALME-3M melanoma = system: MALME-3M melanoma
SF-295 CNS = system: SF-295 CNS
LOX IMVI melanoma = system: LOX IMVI melanoma
T-47D breast = system: T-47D breast
SK-MEL-5 melanoma = system: SK-MEL-5 melanoma
SNB-75 CNS = system: SNB-75 CNS
SK-OV-3 ovarian = system: SK-OV-3 ovarian
MDA-MB-231 breast = system: MDA-MB-231 breast
SK-MEL-28 melanoma = system: SK-MEL-28 melanoma
OVCAR-4 ovarian = system: OVCAR-4 ovarian
EKVX NSCLC = system: EKVX NSCLC
RPMI-8226 leukemia = system: RPMI-8226 leukemia
SN12C renal = system: SN12C renal
COLO 205 colon = system: COLO 205 colon
KM12 colon = system: KM12 colon
HCT-116 colon = system: HCT-116 colon
UACC-62 melanoma = system: UACC-62 melanoma
NCI-H226 lung = system: NCI-H226 lung
PC-3 prostate = system: PC-3 prostate

Cc1c(N2C(=O)/C(=C\c3ccc(N(C)C)cc3)N=C2c2ccccc2)c(=O)n(-c2ccccc2)n1C
inactive: GI50 (K-562 leukemia) 40.9 µM | GI50 (M14 melanoma) > 100 µM | GI50 (U251 CNS) > 92.4 µM | GI50 (HS 578T breast) > 100 µM | GI50 (NCI/ADR-RES ovarian) 99.5 µM | GI50 (HOP-62 NSCLC) > 100 µM | GI50 (NCI-H460 lung) 62.9 µM | GI50 (MDA-MB-435) > 100 µM | GI50 (HCT-15 colon) > 100 µM | GI50 (SNB-19 CNS) > 100 µM | GI50 (SK-MEL-2 melanoma) > 100 µM | GI50 (HT29 colon) 49.5 µM | GI50 (A498 renal) > 64.3 µM | GI50 (HL-60(TB) leukemia) 40.2 µM | GI50 (CAKI-1 renal) > 100 µM | GI50 (OVCAR-5 ovarian) > 90.1 µM | GI50 (OVCAR-3 ovarian) > 70.6 µM | GI50 (SW-620 colon) > 100 µM | GI50 (OVCAR-8 ovarian) 83.9 µM | GI50 (SF-539 CNS) > 100 µM | GI50 (A549 NSCLC) 79.1 µM | GI50 (BT-549 breast) 63.7 µM | GI50 (MCF7 breast) 25.7 µM | GI50 (SF-268 CNS) > 76.9 µM | GI50 (DU-145 prostate) 71.3 µM | GI50 (HCC-2998 colon) > 100 µM | GI50 (TK-10 renal) > 100 µM | GI50 (NCI-H23 lung) > 92.2 µM | GI50 (ACHN renal) > 100 µM | GI50 (UACC-257 melanoma) > 100 µM | GI50 (786-0 renal) > 100 µM | GI50 (IGROV1 ovarian) 24.1 µM | GI50 (UO-31 renal) 40.6 µM | GI50 (NCI-H522 lung) 67.8 µM | GI50 (SR leukemia) 58.8 µM | GI50 (RXF 393 renal) > 100 µM | GI50 (HOP-92 NSCLC) 31.8 µM | GI50 (MOLT-4 leukemia) 7.85 µM | GI50 (MALME-3M melanoma) > 100 µM | GI50 (SF-295 CNS) 92 µM | GI50 (LOX IMVI melanoma) > 94.4 µM | GI50 (T-47D breast) 19.3 µM | GI50 (SK-MEL-5 melanoma) 36.3 µM | GI50 (SNB-75 CNS) 60.2 µM | GI50 (SK-OV-3 ovarian) > 100 µM | GI50 (MDA-MB-231 breast) > 82.9 µM | GI50 (SK-MEL-28 melanoma) > 100 µM | GI50 (OVCAR-4 ovarian) 39.9 µM | GI50 (EKVX NSCLC) 68.4 µM | GI50 (RPMI-8226 leukemia) 25.6 µM | GI50 (SN12C renal) > 100 µM | GI50 (COLO 205 colon) 43.7 µM | GI50 (KM12 colon) 77.8 µM | GI50 (HCT-116 colon) 33.7 µM | GI50 (UACC-62 melanoma) > 100 µM | GI50 (NCI-H226 lung) 72.2 µM | GI50 (PC-3 prostate) 29.7 µM
> 92 µM: TGI (RPMI-8226 leukemia)
> 100 µM: TGI (K-562 leukemia) | TGI (M14 melanoma) | TGI (U251 CNS) | TGI (HS 578T breast) | TGI (NCI/ADR-RES ovarian) | TGI (HOP-62 NSCLC) | TGI (NCI-H460 lung) | TGI (MDA-MB-435) | TGI (HCT-15 colon) | TGI (SNB-19 CNS) | TGI (SK-MEL-2 melanoma) | TGI (HT29 colon) | TGI (A498 renal) | TGI (HL-60(TB) leukemia) | TGI (CAKI-1 renal) | TGI (OVCAR-5 ovarian) | TGI (OVCAR-3 ovarian) | TGI (SW-620 colon) | TGI (OVCAR-8 ovarian) | TGI (SF-539 CNS) | TGI (A549 NSCLC) | TGI (BT-549 breast) | TGI (MCF7 breast) | TGI (SF-268 CNS) | TGI (DU-145 prostate) | TGI (HCC-2998 colon) | TGI (TK-10 renal) | TGI (NCI-H23 lung) | TGI (ACHN renal) | TGI (UACC-257 melanoma) | TGI (786-0 renal) | TGI (IGROV1 ovarian) | TGI (UO-31 renal) | TGI (NCI-H522 lung) | TGI (SR leukemia) | TGI (RXF 393 renal) | TGI (HOP-92 NSCLC) | TGI (MOLT-4 leukemia) | TGI (MALME-3M melanoma) | TGI (SF-295 CNS) | TGI (LOX IMVI melanoma) | TGI (SK-MEL-5 melanoma) | TGI (SNB-75 CNS) | TGI (SK-OV-3 ovarian) | TGI (MDA-MB-231 breast) | TGI (SK-MEL-28 melanoma) | TGI (OVCAR-4 ovarian) | TGI (EKVX NSCLC) | TGI (SN12C renal) | TGI (COLO 205 colon) | TGI (KM12 colon) | TGI (HCT-116 colon) | TGI (UACC-62 melanoma) | TGI (NCI-H226 lung) | TGI (PC-3 prostate)
> 87.2 µM: TGI (T-47D breast)
